Source: patent US20220389003A1, “4-SUBSTITUTED INDOLE AND INDAZOLE SULFONAMIDO DERIVATIVES AS PARG INHIBITORS” (IDEAYA BIOSCIENCES, INC., priority 2019, published 2022)
Where two headings read alike, the source gives them in different places. One block for each compound: values may come before it.

Experiments:
[1] = system: HCC1806-XRCC1 KD (knock down) cells; assay: Cellular viability assay (Cell Titer-Glo); type: cell-based; settings: HCC1806-shXRCC1 cells, 4 days of incubation, read-out: PARGi cell viability
Description: HCC1806-XRCC1 KD (knock down) cells were plated at 2000 cells/well in 96-well white plates with clear flat bottom. After 24 hours, the compounds of the disclosure were added starting at 30 μM for a 9-point dose response curve at 1:3 dilution. The compounds of the disclosure were added by Tecan digital dispenser excluding the outermost wells of the plate. All treatments were done in duplicates. After 4 days of incubation, 50 ul of Cell Titer-Glo (Promega) was added per well. After incubation with the reagent for 15 minutes, luminescence was read using a plate reader (TECAN). Average values of DMSO treated wells in a plate was calculated. All data points were normalized to that of the average DMSO value. The % of control for each sample compared to DMSO treated control samples. Curves are fit as % of control vs. log [compound concentration] using a 4 parameter inhibition model (Levenberg-Marquardt algorithm):
Fit=(A+((B−A)/(1+((C/x)^D))))

PARG [2] = biological target: T1, PARG (Homo sapiens, UniProt Q86W56); assay: Inhibition of PARG enzymatic assay (TR-FRET enzymatic IC50 assay); type: biochemical; design: purchased Peak Proteins; settings: hPARG 250 pM, biotinylated-PARylated PARP substrate 30 nM
Description: PARG enzyme was incubated with compound or vehicle (DMSO) and the biotinylated-PARylated PARP substrate in a microtiter plate. After adding detection antibody and streptavidin-europium, and then incubating, the plate was read for fluorescence intensity. The low control (DMSO) with low fluorescence intensity represents no inhibition of enzymatic reaction while the high control (no enzyme) with high fluorescence intensity represents full inhibition of enzymatic reaction.
• PARG • hPARG: 250 pM, His-tagged, Peak Proteins, 0.96 mg/mL (8.58 μM) • Substrate: 30 nM • Reaction time: 70 minutes • Substrate: hPARP1, His- and TEV-tagged, Peak Proteins, 14 μM • Detection Antibody: anti-His monoclonal antibody-ULight, Perkin Elmer catalog #TRF0105-M • Streptavidin-Europium: Perkin Elmer catalog #AD0062 • Assay buffer: 50 mM Tris-HCl pH 7.4, 50 mM KCl, 3 mM EDTA, 0.4 mM EGTA, 1 mM DTT, 0.01% Tween 20, 0.01% BSA • Temperature: 23° C. • Total volume: 20 μL
• 0% inhibition control: DMSO • 100% inhibition control: No enzyme
• 1. Transfer 5 μL of 3× final concentration of test compounds or DMSO to the appropriate wells of a microtiter plate. • 2. Centrifuge the plate at 1000 rpm for 1 minute. • 3. Transfer 5 μL of 3× final concentration of enzyme in assay buffer or assay buffer alone to the appropriate wells. • 4. Centrifuge the plate at 1000 rpm for 1 minute. • 5. Incubate the plate at room temperature for 1 hour. • 6. Transfer 5 μL of 3× substrate in assay buffer to all the test wells. • 7. Centrifuge the plate at 1000 rpm for 1 minute. • 8. Incubate the plate at room temperature for 10 minutes. • 9. Transfer 5 μL of 3× mixture of detection antibody and streptavidin-europium in assay buffer to all the test wells. • 10. Centrifuge the plate at 1000 rpm for 1 minute. • 11. Incubate the plate at room temperature for 1 hour. • 12. Read the plate on a plate reader (e.g., Infinite M1000).

PARG [3] = biological target: T1, PARG; assay: Inhibition of PARG cellular assay (PAR foci in HeLa cells after MMS); type: cell-based; design: endogenous in cells; host or cells: HeLa; settings: compound 1 h then MMS 1 h
Description: The ability of the compounds disclosed herein to inhibit PARG was determined as described below. Briefly, after treating HeLa cells with the compounds of the disclosure for 1 h, followed by treatment with DNA alkylating agent methylmethanesulfonate (MMS) for an additional 1 h, the cells were fixed in 3.7% formaldehyde. The cells were permeabilized in 0.5% Triton-X100, blocked in 5% goat serum, and incubated with mouse monoclonal antibody against poly (ADP) ribose (PAR) polymer overnight at 4° C. The cells were washed and incubated with an Alexafluor 488-linked secondary antibody together with a nuclear stain (Hoechst 33342) for an hour at room temperature. After washing, images of the cells were captured and analyzed on a high content imaging microscope and software. Two measurement of PAR chain were quantified with the mean intensity over background of the nuclear foci (fluorescent signal at 488 nm range 0.3-2.0 μm foci) quantified as PAR foci (PAR Foci IC50). The cells with a PAR foci signal >1.3 was considered as positive (PAR % positive IC50), and the percentage positive cells are quantified.

T1 sequence (Q86W56 whole entry): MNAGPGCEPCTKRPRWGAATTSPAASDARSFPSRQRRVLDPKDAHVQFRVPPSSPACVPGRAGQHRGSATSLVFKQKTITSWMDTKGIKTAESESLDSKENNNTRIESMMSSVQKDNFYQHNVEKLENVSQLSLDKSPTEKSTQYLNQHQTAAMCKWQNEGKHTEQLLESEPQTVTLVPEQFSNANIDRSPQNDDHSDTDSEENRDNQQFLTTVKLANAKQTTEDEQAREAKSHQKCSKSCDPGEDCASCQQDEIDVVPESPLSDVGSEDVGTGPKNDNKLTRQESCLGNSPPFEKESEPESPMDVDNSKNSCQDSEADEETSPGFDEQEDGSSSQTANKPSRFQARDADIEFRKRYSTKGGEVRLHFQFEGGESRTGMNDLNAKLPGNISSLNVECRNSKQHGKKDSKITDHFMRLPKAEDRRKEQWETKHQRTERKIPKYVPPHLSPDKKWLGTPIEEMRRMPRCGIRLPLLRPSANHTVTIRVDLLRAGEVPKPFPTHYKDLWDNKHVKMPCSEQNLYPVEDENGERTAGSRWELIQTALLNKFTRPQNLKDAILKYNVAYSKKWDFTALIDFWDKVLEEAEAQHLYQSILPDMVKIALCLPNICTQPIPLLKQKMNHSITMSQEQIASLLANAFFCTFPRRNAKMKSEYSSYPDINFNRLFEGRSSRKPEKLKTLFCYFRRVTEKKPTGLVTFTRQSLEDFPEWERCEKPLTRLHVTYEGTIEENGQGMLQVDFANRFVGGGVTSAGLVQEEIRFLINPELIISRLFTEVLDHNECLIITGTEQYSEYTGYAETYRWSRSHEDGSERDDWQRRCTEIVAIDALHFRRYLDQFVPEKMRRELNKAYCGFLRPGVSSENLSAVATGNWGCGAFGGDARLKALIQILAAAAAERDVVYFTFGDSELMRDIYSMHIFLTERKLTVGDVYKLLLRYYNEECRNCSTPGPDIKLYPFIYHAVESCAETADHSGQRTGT

SMILES: N#CC1(NS(=O)(=O)c2cc(N3CCC4(CC3)COC4)c3c(Cl)nn(-c4nnc(C(F)F)s4)c3c2)CC1 [Example 114, 1-[({1-[5-(difluoromethyl)(1,3,4-thiadiazol-2-yl)]-3-chloro-4-(2-oxa-7-azaspiro[3.5]non-7-yl)-1H-indazol-6-yl}sulfonyl)amino]cyclopropanecarbonitrile]
IC50 ([1]; 96 h): 10 to 20 µM | IC50 (PARG [2]): 1 to 10 µM | IC50 (PARG [3]): 0.3 to 1 µM

SMILES: CN1CC2CN(c3cc(S(=O)(=O)NC4(C#N)CC4)cc4c3cnn4-c3nnc(C(F)F)s3)CCN2C1=O (single isomer, unassigned) [Example 72, 1-[({4-(8-methyl-7-oxo-3,6,8-triazabicyclo[4.3.0]non-3-yl)-1-[5-(difluoromethyl)-(1,3,4-thiadiazol-2-yl)]-1H-indazol-6-yl}sulfonyl)amino]cyclopropane carbonitrile]
IC50 [1]: 1 to 10 µM | IC50 (PARG [2]): ≤ 0.1 µM | IC50 (PARG [3]): 0.1 to 0.3 µM

SMILES: CC(C)NS(=O)(=O)c1cc(N2CCN(C(=O)C(C)C)CC2)c2cnn(-c3nnc(C(F)F)s3)c2c1 [Example 98, 1-[4-(1-[5-(difluoromethyl)(1,3,4-thiadiazol-2-yl)]-6-{[(methylethyl)amino]sulfonyl}(1H-indazol-4-yl))piperazinyl]-2-methylpropan-1-one]
IC50 ([1]; 96 h): 1 to 10 µM | IC50 (PARG [2]): 0.1 to 0.3 µM | IC50 (PARG [3]): 1 to 10 µM

SMILES: N#CC1(NS(=O)(=O)c2cc(N3CCC(CO)CC3)c3cnn(-c4nnc(C(F)F)s4)c3c2)CC1 [Example 47, 1-[({1-[5-(difluoromethyl)(1,3,4-thiadiazol-2-yl)]-4-[4-(hydroxymethyl)piperidyl]-1H-indazol-6-yl}sulfonyl)amino]cyclopropanecarbonitrile]
IC50 ([1]; 96 h): 1 to 10 µM | IC50 (PARG [2]): ≤ 0.1 µM | IC50 (PARG [3]): 0.3 to 1 µM

SMILES: CC(C)C(=O)N1[C@@H]2CC[C@H]1CN(c1cc(S(=O)(=O)NC3(C#N)CC3)cc3c1cnn3-c1nnc(C(F)F)s1)C2 [Example 37, 1-[({4-[(1S,5R)-8-(2-methylpropanoyl)-3,8-diazabicyclo[3.2.1]oct-3-yl]-1-[5-(difluoromethyl)(1,3,4-thiadiazol-2-yl)]-1H-indazol-6-yl}sulfonyl)amino]cyclopropane carbonitrile]
IC50 ([1]; 96 h): 1 to 10 µM | IC50 (PARG [3]): ≤ 0.1 µM

SMILES: N#CC1(NS(=O)(=O)c2cc(N3CCN(C=O)CC3)c3cnn(-c4nnc(C(F)F)s4)c3c2)CC1 [Example 49, 1-[({1-[5-(difluoromethyl)(1,3,4-thiadiazol-2-yl)]-4-(4-formylpiperazinyl)-1H-indazol-6-yl}sulfonyl)amino]cyclopropanecarbonitrile]
IC50 ([1]; 96 h): 1 to 10 µM | IC50 (PARG [3]): 0.3 to 1 µM

SMILES: Cn1cnnc1N1CCN(c2cc(S(=O)(=O)NC3(C#N)CC3)cc3c2cnn3-c2nnc(C(F)F)s2)CC1 [Example 36, 1-[({1-[5-(difluoromethyl)(1,3,4-thiadiazol-2-yl)]-4-[4-(4-methyl(1,2,4-triazol-3-yl))piperazinyl]-1H-indazol-6-yl}sulfonyl)amino]cyclopropanecarbonitrile]
IC50 ([1]; 96 h): 10 to 20 µM | IC50 (PARG [2]): ≤ 0.1 µM

SMILES: CNC(=O)C1CN(c2cc(S(=O)(=O)NC3(C#N)CC3)cc3c2cnn3-c2nnc(C(F)F)s2)C1 [Example 75, 1-(6-(N-(1-cyanocyclopropyl)sulfamoyl)-1-(5-(difluoromethyl)-1,3,4-thiadiazol-2-yl)-1H-indazol-4-yl)-N-methylazetidine-3-carboxamide]
IC50 ([1]; 96 h): 20 to 30 µM | IC50 (PARG [2]): 0.3 to 1 µM

The next lines start with the values.

IC50 ([1]; 96 h): 1 to 10 µM | IC50 (PARG [2]): ≤ 0.1 µM | IC50 (PARG [3]): ≤ 0.1 µM
SMILES: N#CC1(NS(=O)(=O)c2cc(N3CCN(C(=O)c4ccccc4)CC3)c3cnn(-c4nnc(C(F)F)s4)c3c2)CC1 [Example 96, 1-[({1-[5-(difluoromethyl)(1,3,4-thiadiazol-2-yl)]-4-[4-(phenylcarbonyl)piperazinyl]-1H-indazol-6-yl}sulfonyl)amino]cyclopropanecarbonitrile]

IC50 ([1]; 96 h): 1 to 10 µM | IC50 (PARG [2]): ≤ 0.1 µM | IC50 (PARG [3]): ≤ 0.1 µM
SMILES: C[C@@H]1CN(c2cc(S(=O)(=O)NC3(C#N)CC3)cc3c2cnn3-c2nnc(C(F)F)s2)CCN1C(=O)C1CCN(CC(F)F)CC1 [Example 106, 1-({[4-((3R)-4-{[1-(2,2-difluoroethyl)(4-piperidyl)]carbonyl}-3-methylpiperazinyl)-1-[5-(difluoromethyl)(1,3,4-thiadiazol-2-yl)]-1H-indazol-6-yl]sulfonyl}amino) cyclopropanecarbonitrile]

IC50 ([1]; 96 h): < 1 µM | IC50 (PARG [2]): ≤ 0.1 µM | IC50 (PARG [3]): ≤ 0.1 µM
SMILES: N#CC1(NS(=O)(=O)c2cc(N3CCC4(CC3)COC4)c3cnn(-c4nnc(C(F)F)s4)c3c2)CC1 [Example 25, 1-[({1-[5-(difluoromethyl)(1,3,4-thiadiazol-2-yl)]-4-(2-oxa-7-azaspiro[3.5]non-7-yl)-1H-indazol-6-yl}sulfonyl)amino]cyclopropanecarbonitrile]

IC50 ([1]; 96 h): 1 to 10 µM | IC50 (PARG [2]): 0.3 to 1 µM | IC50 (PARG [3]): 1 to 10 µM
SMILES: N#CC1(NS(=O)(=O)c2cc(N3CCC4(CCCO4)CC3)c3cnn(-c4nnc(C(F)F)s4)c3c2)CC1 [Example 44, 1-[({1-[5-(difluoromethyl)(1,3,4-thiadiazol-2-yl)]-4-(1-oxa-8-azaspiro[4.5]dec-8-yl)-1H-indazol-6-yl}sulfonyl)amino]cyclopropanecarbonitrile]

IC50 ([1]; 96 h): < 1 µM | IC50 (PARG [2]): ≤ 0.1 µM | IC50 (PARG [3]): ≤ 0.1 µM
SMILES: CC(C)C(=O)N1CCN(c2cc(S(=O)(=O)NC3(C#N)CC3)cc3c2ccn3-c2nnc(C(F)F)s2)CC1 [Example 28, 1-[({1-[5-(difluoromethyl)(1,3,4-thiadiazol-2-yl)]-4-[4-(2-methylpropanoyl)piperazinyl]indol-6-yl}sulfonyl)amino]cyclopropanecarbonitrile]

IC50 ([1]; 96 h): < 1 µM | IC50 (PARG [2]): ≤ 0.1 µM | IC50 (PARG [3]): ≤ 0.1 µM
SMILES: C[C@@H]1CN(c2cc(S(=O)(=O)NC3(C#N)CC3)cc3c2cnn3-c2nnc(C(F)F)s2)CCN1C(=O)N(C)C [Example 35, [(2R)-4-(1-[5-(difluoromethyl)(1,3,4-thiadiazol-2-yl)]-6-{[(cyanocyclopropyl)amino]sulfonyl}(1H-indazol-4-yl))-2-methylpiperazinyl]-N,N-dimethylcarboxamide]

IC50 ([1]; 96 h): < 1 µM | IC50 (PARG [2]): ≤ 0.1 µM | IC50 (PARG [3]): ≤ 0.1 µM
SMILES: CC(C)C(=O)N1CCN(c2cc(S(=O)(=O)NC3(C#N)CC3)cc3c2cnn3-c2nnc(C(F)F)s2)C[C@H]1C [Example 82, 1-[({4-[(3R)-3-methyl-4-(2-methylpropanoyl)piperazinyl]-1-[5-(difluoromethyl) (1,3,4-thiadiazol-2-yl)]-1H-indazol-6-yl}sulfonyl)amino]cyclopropanecarbonitrile]

IC50 ([1]; 96 h): < 1 µM | IC50 (PARG [3]): ≤ 0.1 µM
SMILES: N#CC1(NS(=O)(=O)c2cc(N3CCN(C(=O)C4CCC4)CC3)c3cnn(-c4nnc(C(F)F)s4)c3c2)CC1 [Example 81, 1-[({1-[5-(difluoromethyl)(1,3,4-thiadiazol-2-yl)]-4-[4-(cyclobutylcarbonyl)piperazinyl]-1H-indazol-6-yl}sulfonyl)amino]cyclopropanecarbonitrile]
